According to ChEMBL document CHEMBL1201862, “PubChem BioAssay data set” (2004):
Calls of active or inactive are those of the source. For most assays here, no stated cut-off is given here; in the data, actives have a measured EC50 and inactives only a lower limit.

Target: T1, Heat shock factor protein 1 (Mus musculus, UniProt P38532)
T1 sequence (P38532 whole entry): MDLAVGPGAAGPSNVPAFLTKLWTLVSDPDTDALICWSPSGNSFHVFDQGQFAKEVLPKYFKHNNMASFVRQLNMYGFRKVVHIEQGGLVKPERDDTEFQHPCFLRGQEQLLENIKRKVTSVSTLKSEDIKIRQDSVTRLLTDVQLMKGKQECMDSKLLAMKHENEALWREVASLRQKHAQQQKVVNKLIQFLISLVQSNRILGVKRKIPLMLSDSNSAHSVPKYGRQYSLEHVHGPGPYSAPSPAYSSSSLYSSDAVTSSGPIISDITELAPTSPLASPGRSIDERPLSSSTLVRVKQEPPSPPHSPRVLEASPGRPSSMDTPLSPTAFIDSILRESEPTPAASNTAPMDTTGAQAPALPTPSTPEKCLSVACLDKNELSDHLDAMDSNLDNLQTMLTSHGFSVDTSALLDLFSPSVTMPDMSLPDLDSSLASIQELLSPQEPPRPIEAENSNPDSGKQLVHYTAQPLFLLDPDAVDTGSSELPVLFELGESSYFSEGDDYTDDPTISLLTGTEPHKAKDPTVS
Test: inhibition of MG132-induced HSE-luciferase signal, confirmation, cell-based, NIH3T3, luminescence, dose retest (AID 2382);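 further: NIH3T3 fibroblasts with HSF1-driven luciferase reporter stressed by proteasome inhibitor MG132; luminescence from HSF1-driven luciferase expression after 8 hours of MG132 stress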
Type: functional
Settings: not given

Which EC50 does the source give for `CCc1cc[n+](CC(=O)Nc2ccc(Cl)cc2Cl)cc1` here?
Its EC50 is > 195 µM (not active).

For `O=C(Cc1ccsc1)Nc1ccc(S(=O)(=O)C(F)F)cc1`, which EC50 is on record?
The EC50 was > 195 µM (not active).

With `COCCNC(=O)C(OC(=O)c1cccs1)c1ccccc1` (centres undefined) as the molecule, how does the EC50 read?
The EC50 was > 195 µM (not active).

With `CNC(=S)N(CCc1c(C)[nH]c2ccc(C)cc12)Cc1cc(OC)c(OC)c(OC)c1` as the molecule, how does the EC50 read?
Its EC50 is > 195 µM (not active).

Which EC50 does the source give for `CC(=O)C1=C(O)C(=O)N(Cc2cccnc2)C1c1ccc(O)cc1` (centres undefined) here?
Its EC50 is > 195 µM (not active).

Which EC50 does the source give for `CN1CCc2c(sc3c2C(=O)NC(c2ccc(-c4ccc(Cl)cc4)o2)N3)C1` (centres undefined) here?
The EC50 was > 195 µM (not active).

Which EC50 does the source give for `CCOc1ccc(CNC(=O)c2ccc3nc(N4CCOCC4)sc3c2)cc1` here?
The EC50 was > 195 µM (not active).

With `CN(c1ccccc1)c1ncccn1` as the molecule, how does the EC50 read?
The EC50 was > 195 µM (not active).

Which EC50 does the source give for `C=CCOc1ccn(C)c(=O)n1` here?
The EC50 was > 195 µM (not active).

Target: Glyceraldehyde-3-phosphate dehydrogenase (Homo sapiens, UniProt P04406)
Settings: not given

Sequence of Glyceraldehyde-3-phosphate dehydrogenase (P04406 whole entry): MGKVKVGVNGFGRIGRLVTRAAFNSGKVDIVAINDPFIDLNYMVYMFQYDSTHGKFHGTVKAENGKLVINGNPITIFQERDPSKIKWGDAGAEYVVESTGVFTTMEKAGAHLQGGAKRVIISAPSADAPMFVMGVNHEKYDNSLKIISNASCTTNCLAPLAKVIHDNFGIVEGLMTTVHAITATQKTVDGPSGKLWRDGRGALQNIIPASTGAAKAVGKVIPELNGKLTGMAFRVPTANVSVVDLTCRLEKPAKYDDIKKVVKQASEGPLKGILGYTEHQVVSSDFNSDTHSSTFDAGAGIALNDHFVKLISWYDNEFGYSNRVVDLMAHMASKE

Which IC50 does the source give for `O=C(Nc1cc2nn(-c3ccccc3)nc2cc1Cl)c1ccc([N+](=O)[O-])o1` here?
Its IC50 is > 100 µM (not active).

For `COc1cccc(N2CCN(C3=C(Cl)C(=O)N(c4ccnc(Cl)c4)C3=O)CC2)c1`, which IC50 is on record?
Its IC50 is > 50 µM (inconclusive).

Which IC50 does the source give for `COc1cccc(N2C(=O)C(Cl)=C(N3CCN[C@H](C)C3)C2=O)c1` here?
Its IC50 is > 50 µM (inconclusive).

With `Cc1cc(=O)oc2cc(OCC(=O)Nc3ccc(O)c(C(=O)O)c3)ccc12` as the molecule, how does the IC50 read?
Its IC50 is > 100 µM (not active).

Which IC50 does the source give for `CC(=O)N1N=C(c2cccc([N+](=O)[O-])c2)CC1c1ccc(Br)cc1` (centres undefined) here?
The IC50 was > 100 µM (not active).

Tested on: Streptococcus
Test: Group A Streptococcus viability loss, dose response, counter-screen for streptokinase expression inhibitor project, luminescence, BacTiterGlo (AID 1915);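 further: potency for reduction of bacterial viability or growth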
Type: functional, organism-based
Settings: not given

With `CCOC(=O)C1CCN(C(=O)c2ccc3c(=O)n4nc(Nc5cc(C)ccc5C)sc4nc3c2)CC1` as the molecule, how does the EC50 read?
Its EC50 is 37.4 µM (active).

Target: T2, Streptokinase A (Streptococcus pyogenes serotype M1, UniProt P10520)
T2 sequence (P10520 whole entry): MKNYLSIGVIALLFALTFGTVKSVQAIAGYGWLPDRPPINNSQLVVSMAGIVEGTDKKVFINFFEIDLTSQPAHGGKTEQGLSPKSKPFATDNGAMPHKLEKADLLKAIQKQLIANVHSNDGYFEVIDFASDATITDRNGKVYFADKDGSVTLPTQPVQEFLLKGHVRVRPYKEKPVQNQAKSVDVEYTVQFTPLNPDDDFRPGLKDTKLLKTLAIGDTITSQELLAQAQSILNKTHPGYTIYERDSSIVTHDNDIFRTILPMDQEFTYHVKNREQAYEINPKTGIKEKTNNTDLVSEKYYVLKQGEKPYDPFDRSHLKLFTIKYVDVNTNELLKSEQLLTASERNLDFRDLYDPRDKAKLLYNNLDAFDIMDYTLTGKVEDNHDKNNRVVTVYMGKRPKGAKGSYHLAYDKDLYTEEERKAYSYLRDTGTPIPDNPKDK
Test: S. pyogenes streptokinase expression inhibitors, potency, dose response, plasminogen activation absorbance, OD405 (AID 1914);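 further: secreted streptokinase activity via plasminogen activation per viability signal from cell pellet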
Type: functional, Streptococcus pyogenes M1 GAS
Settings: not given

For `CCOC(=O)C1CCN(C(=O)c2ccc3c(=O)n4nc(Nc5cc(C)ccc5C)sc4nc3c2)CC1`, which EC50 is on record?
Its EC50 is > 150 µM (not active).

Tested on: Streptococcus sp. 'group A'
Test: growth inhibition of control SK(-) GAS strain, dose response, counter-screen for streptokinase expression inhibitor project, luminescence, kanamycin, BacTiterGlo, confirmation (AID 1900)
Type: functional, organism-based
Settings: not given

Which EC50 does the source give for `CCOC(=O)C1CCN(C(=O)c2ccc3c(=O)n4nc(Nc5cc(C)ccc5C)sc4nc3c2)CC1` here?
The EC50 was 9.44 µM (active).

Tested on: not listed separately
Test: Luminescence Cell-Based Dose Response HTS to Identify Inhibitors of 5'UTR Stem-Loop Driven Prion Protein mRNA Translation in H4 Neuroglioblastoma Cells. [Related pubchem assays: 1827 (Project Summary), 1813 (Primary HTS)]
Type: functional
Settings: not given

With `CC(C)C(=O)Nc1cccc(C(=O)Nc2ccccc2C(=O)O)c1` as the molecule, how does the EC50 read?
The EC50 was > 120 µM (not active).

Which EC50 does the source give for `O=C(NCc1ccccn1)c1ccc(Cn2c(=S)[nH]c3ccc(Br)cc3c2=O)cc1` here?
The EC50 was > 120 µM (not active).

For `COc1cccc(C2Nc3ccccc3C(=O)N2Cc2ccccc2)c1` (centres undefined), which EC50 is on record?
Its EC50 is > 120 µM (not active).

Tested on: not listed separately
Test: inhibitors of SNCA 5'UTR-driven reporter translation, confirmation, H4 neuroglioma cells, luminescence (AID 1988)
Type: functional, cell-based
Settings: not given

Which EC50 does the source give for `CC(C)C(=O)Nc1cccc(C(=O)Nc2ccccc2C(=O)O)c1` here?
Its EC50 is > 120 µM (not active).

For `O=C(NCc1ccccn1)c1ccc(Cn2c(=S)[nH]c3ccc(Br)cc3c2=O)cc1`, which EC50 is on record?
The EC50 was > 120 µM (not active).

With `COc1cccc(C2Nc3ccccc3C(=O)N2Cc2ccccc2)c1` (centres undefined) as the molecule, how does the EC50 read?
Its EC50 is > 120 µM (not active).

Tested on: not listed separately
Test: C. albicans growth with fluconazole, confirmation, fluorescence, retest (AID 2467)
Type: functional, cell-based
Settings: not given

With `CCOC(=O)C1CCN(C(=O)c2ccc3c(=O)n4nc(Nc5cc(C)ccc5C)sc4nc3c2)CC1` as the molecule, how does the EC50 read?
The EC50 was 2.55 µM (active).

With `Cc1cc2c(cc(C(=O)OCC(=O)NCc3ccco3)n2C)s1` as the molecule, how does the EC50 read?
The EC50 was > 38 µM (not active).

Tested on: H4
Test: Luminescence Cell-Based Dose Response HTS to Identify Activators of 5'UTR Stem-Loop Driven Prion Protein mRNA Translation in H4 Neuroglioblastoma Cells. [Related pubchem assays: 1829 (Project Summary), 1814 (Primary HTS)]
Type: functional
Settings: Homo sapiens

For `O=c1cccc2n1Cc1cc3ccccc3nc1-2`, which EC50 is on record?
Its EC50 is 37.6 µM (active).

For `Cc1nc(NC(=O)C2CC2)sc1C(=O)Nc1ccccc1Cl`, which EC50 is on record?
The EC50 was 9.56 µM (active).

Tested on: not listed separately
Test: inhibitors of firefly luciferase expression or activity, dose response, H4 neuroglioma cells, luminescence (AID 1990)
Type: functional, cell-based
Settings: not given

For `CC(C)C(=O)Nc1cccc(C(=O)Nc2ccccc2C(=O)O)c1`, which EC50 is on record?
Its EC50 is 47.8 µM (active).

Which EC50 does the source give for `O=C(NCc1ccccn1)c1ccc(Cn2c(=S)[nH]c3ccc(Br)cc3c2=O)cc1` here?
The EC50 was > 120 µM (not active).

For `COc1cccc(C2Nc3ccccc3C(=O)N2Cc2ccccc2)c1` (centres undefined), which EC50 is on record?
The EC50 was > 120 µM (not active).

Tested on: not listed separately
Test: Luminescence Cell-Based Dose Response HTS to Identify Activators of Luciferase Translation or Activity in H4 […] Cells. [Related pubchem assays: 1829 (Project Summary), 1814 (Primary HTS)]
Type: functional
Settings: not given

Which EC50 does the source give for `O=c1cccc2n1Cc1cc3ccccc3nc1-2` here?
Its EC50 is 38.3 µM (active).

With `Cc1nc(NC(=O)C2CC2)sc1C(=O)Nc1ccccc1Cl` as the molecule, how does the EC50 read?
Its EC50 is 11.6 µM (active).

Tested on: not listed separately
Test: NIH-3T3 fibroblast cytotoxicity, dose response, cytotoxicity control, cell-based, fluorescence, Alamar Blue, secondary assay (AID 2327);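 further: NIH-3T3 mouse fibroblasts cultured with fluconazole at 8 µg/mL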
Type: functional
Settings: not given

With `CCOC(=O)C1CCN(C(=O)c2ccc3c(=O)n4nc(Nc5cc(C)ccc5C)sc4nc3c2)CC1` as the molecule, how does the EC50 read?
The EC50 was > 150 µM (inactive).

Which EC50 does the source give for `Cc1cc2c(cc(C(=O)OCC(=O)NCc3ccco3)n2C)s1` here?
Its EC50 is 22.4 µM (active).
